A compilation of properties of binary mixtures (doi:10.1016/j.fluid.2020.112621)

Test: xn = mol fraction of the nth substance listed
Details: 101 kPa

CCCCC(=O)[O-].CC[NH+](CC)CCO + CCCC[n+]1ccn(C)c1.COP(=O)([O-])OC
viscosity [mPa·s]
Details | x1 = 0.1018 | x1 = 0.1952 | x1 = 0.3029 | x1 = 0.4003 | x1 = 0.4973 | x1 = 0.5989 | x1 = 0.6984 | x1 = 0.7978 | x1 = 0.8868 | x1 = 1
278.15 K | 2088 | 1185.7 | 676 | 440 | 318.2 | 250.8 | – | 190.6 | 171.4 | 156.6
283.15 K | 1327.5 | 786 | 464 | 309 | – | 180.3 | 156.2 | 137.6 | 123.9 | 113.1
288.15 K | – | 536 | 327.1 | 222.5 | 165.5 | 132.6 | 115 | 101.5 | 91.4 | 83.2
293.15 K | – | 376 | 236.3 | 163.8 | 123.3 | 99.4 | 86.4 | 76.3 | 68.8 | 62.4
298.15 K | 416 | – | 174.8 | 123.2 | 93.8 | – | 66.1 | – | 52.75 | 47.75
303.15 K | 298.4 | – | – | 94.6 | 72.7 | 59.21 | 51.52 | 45.65 | 41.15 | –
308.15 K | 219.3 | – | 101.6 | 73.8 | 57.24 | – | 40.78 | 36.17 | 32.59 | 29.31
313.15 K | 164.7 | 115.4 | – | – | 45.77 | – | 32.76 | 29.07 | – | 23.48
318.15 K | 126 | – | 63.2 | – | 37.12 | – | – | 23.66 | 21.33 | 19.07
323.15 K | 98.1 | 71.4 | 50.96 | 38.46 | 30.5 | 25.23 | 21.99 | – | 17.59 | 15.68
328.15 K | 77.7 | 57.48 | 41.66 | 31.79 | – | – | – | 16.26 | 14.66 | 13.03
333.15 K | – | 46.87 | – | – | 21.3 | 17.73 | 15.45 | 13.7 | – | –
338.15 K | 50.75 | – | 28.83 | 22.42 | – | – | 13.14 | 11.64 | 10.49 | 9.27
343.15 K | 41.81 | 32.29 | 24.35 | – | – | 12.94 | – | 9.98 | 8.99 | 7.91
348.15 K | 34.84 | 27.23 | 20.77 | 16.43 | 13.36 | – | 9.74 | 8.63 | 7.76 | 6.81
353.15 K | 29.34 | 23.18 | 17.87 | 14.23 | 11.63 | – | 8.48 | 7.51 | 6.75 | 5.9
358.15 K | 24.95 | 19.9 | 15.5 | 12.43 | 10.19 | 8.56 | 7.44 | 6.58 | – | –
363.15 K | – | 17.23 | 13.54 | 10.92 | 8.99 | 7.56 | – | 5.81 | 5.2 | 4.52
368.15 K | 18.52 | 15.03 | 11.92 | 9.66 | 7.98 | 6.72 | 5.83 | 5.15 | 4.61 | 3.99
373.15 K | 16.15 | 13.21 | 10.55 | – | 7.12 | 6 | 5.2 | 4.59 | 4.1 | –

CCCC[n+]1ccn(C)c1.COP(=O)([O-])OC + CC(=O)O.CC(=O)[O-].CC[NH+](CC)CCO
x2 = 0
Details | viscosity [mPa·s]
278.15 K | 3503
288.15 K | 1361.1
293.15 K | 895
303.15 K | 426
308.15 K | 305.8
313.15 K | 224.9
318.15 K | 168.9
323.15 K | 129.4
328.15 K | 100.9
333.15 K | 79.9
338.15 K | 64.25
343.15 K | 52.35
348.15 K | 43.18
363.15 K | 25.86
368.15 K | 22.22
373.15 K | 19.25

CCCC[n+]1ccn(C)c1.COP(=O)([O-])OC + CCCC(=O)[O-].CC[NH+](CC)CCO
x2 = 0
Details | viscosity [mPa·s]
278.15 K | 3503
283.15 K | 2142
288.15 K | 1361.1
293.15 K | 895
303.15 K | 426
308.15 K | 305.8
313.15 K | 224.9
323.15 K | 129.4
333.15 K | 79.9
338.15 K | 64.25
343.15 K | 52.35
353.15 K | 36.02
358.15 K | 30.38
363.15 K | 25.86
368.15 K | 22.22

CCCC(=O)[O-].CC[NH+](CC)CCO + CCCC[n+]1ccn(C)c1.COP(=O)([O-])OC
viscosity [mPa·s]
Details | x1 = 0.1023 | x1 = 0.1989 | x1 = 0.3026 | x1 = 0.3985 | x1 = 0.498 | x1 = 0.6001 | x1 = 0.6613 | x1 = 0.8006 | x1 = 0.8788 | x1 = 1
278.15 K | 2058 | 1152.2 | 671 | 445 | 322.4 | 255.2 | 231 | – | 191 | –
283.15 K | 1309.9 | 764 | 459 | 311.5 | 228.5 | – | 165.4 | 140.9 | 136.5 | –
288.15 K | – | 522 | 322.9 | 223.4 | 165.9 | 133.2 | – | 103.2 | 99.6 | 96.9
293.15 K | 587 | 367 | 233 | – | – | – | 90.5 | 77.1 | – | 71.6
298.15 K | 411 | – | 172.1 | 122.9 | 93.3 | 75.8 | 69 | 58.8 | 56.4 | 54
303.15 K | 294.9 | – | 129.8 | 94 | 72 | – | 53.58 | 45.58 | 43.6 | 41.42
308.15 K | 216.6 | 146.7 | 99.8 | – | 56.55 | 46.34 | 42.29 | 35.94 | 34.28 | 32.34
313.15 K | 162.7 | 112.5 | – | 57.98 | – | 37.1 | – | 28.77 | 27.36 | 25.64
318.15 K | – | 87.9 | 61.99 | 46.61 | 36.5 | – | 27.53 | – | 22.14 | 20.63
323.15 K | 96.9 | – | 49.98 | 37.99 | 29.93 | 24.77 | – | 19.2 | 18.14 | 16.82
328.15 K | 76.7 | 56.15 | 40.85 | 31.37 | 24.84 | – | 18.87 | 15.97 | 15.04 | 13.87
333.15 K | 61.58 | 45.81 | 33.8 | 26.18 | 20.85 | 17.35 | 15.88 | 13.42 | 12.6 | 11.56
338.15 K | 50.11 | 37.83 | 28.27 | 22.09 | 17.68 | 14.74 | – | – | 10.66 | –
343.15 K | 41.29 | – | 23.89 | – | 15.13 | – | 11.56 | 9.74 | 9.09 | 8.27
348.15 K | 34.41 | 26.65 | 20.38 | 16.18 | – | 10.92 | 9.99 | 8.41 | 7.82 | 7.08
353.15 K | 28.99 | 22.7 | – | 14.02 | 11.35 | 9.51 | 8.69 | – | – | –
358.15 K | 24.65 | 19.51 | 15.22 | – | 9.95 | 8.33 | – | 6.39 | 5.92 | –
363.15 K | 21.15 | 16.9 | 13.3 | 10.76 | 8.77 | 7.36 | 6.72 | 5.63 | 5.2 | 4.65
368.15 K | 18.3 | 14.76 | – | 9.52 | 7.78 | 6.53 | 5.97 | 4.99 | 4.6 | –
373.15 K | 15.96 | 12.97 | 10.37 | 8.47 | 6.95 | 5.84 | 5.33 | 4.45 | 4.08 | 3.61

CCCC[n+]1ccn(C)c1.COP(=O)([O-])OC + CCCCC(=O)[O-].CC[NH+](CC)CCO
x2 = 0
Details | viscosity [mPa·s]
278.15 K | 3503
283.15 K | 2142
288.15 K | 1361.1
293.15 K | 895
298.15 K | 609
308.15 K | 305.8
313.15 K | 224.9
318.15 K | 168.9
333.15 K | 79.9
338.15 K | 64.25
343.15 K | 52.35
353.15 K | 36.02
363.15 K | 25.86
